Results reported in patent US7750006B2, “Phthalazinone derivatives” (Kudos Pharmaceuticals Limited, priority 2000, dated 2010).

These molecules were tested on HeLa cells (assay: Dose Enhancing Factor: cell growth inhibition with bleomycin, SRB assay). Conditions: test compound 25 μM, bleomycin 0.5 μg/ml.
Type: cell-based
Description: The Dose Enhancing Factor (DEF) is a ratio of the enhancement of cell growth inhibition elicited by the test compound in the presence of bleomycin compared to bleomycin alone. […] Bleomycin was used at a concentration of 0.5 μg/ml. The DEF was calculated from the formula:
[formula] where GrowthTC is cell growth in presence of the test compound; GrowthControl is cell growth of control cells; Growthbleo is cell growth in presence of bleomycin; and Growth(bleo+TC) is cell growth in presence of bleomycin and the test compound.
2,000 HeLa cells were seeded into each well of a flat-bottomed 96-well microtiter plate in a volume of 100 μl and incubated for 6 hours at 37° C. […] Cells were allowed to grow for a further 1 hour before the addition of bleomycin to either untreated cells or test compound treated cells. Cells untreated with either bleomycin or test compound were used as a control. Cells treated with test compound alone were used to assess the growth inhibition by the test compound.
Cells were left for a further 16 hours before replacing the media and allowing the cells to grow for a further 72 hours at 37° C. The media was then removed and the cells fixed with 100 μl of ice cold 10% (w/v) trichloroacetic acid. The plates were incubated at 4° C. for 20 minutes and then washed four times with water. Each well of cells was then stained with 100 μl of 0.4% (w/v) SRB in 1% acetic acid for 20 minutes before washing four times with 1% acetic acid. Plates were then dried for 2 hours at room temperature. The dye from the stained cells was solubilized by the addition of 100 μl of 10 mM Tris Base into each well.
In the case of `Nc1cccc(Cc2n[nH]c(=O)c3ccccc23)c1` [Compound 160], the “DEF (Dose Enhancing Factor)” value is reported as 1.5. `O=c1[nH]nc(Cc2ccncc2)c2ccccc12` [Compound 177] was tested, and the “DEF (Dose Enhancing Factor)” value was 1.2. In the case of `COc1cc(Cc2n[nH]c(=O)c3ccccc23)ccc1OCc1ccccc1` [Compound 222], the “DEF (Dose Enhancing Factor)” value is reported as 1.2. In the case of `O=c1[nH]nc(Cc2ccc3c(c2)OCO3)c2ccccc12` [Compound 180], the “DEF (Dose Enhancing Factor)” value is reported as 1.2. For `O=c1[nH]nc(Cc2cccc(Oc3ccccc3)c2)c2ccccc12` [Compound 193], the “DEF (Dose Enhancing Factor)” value was 2.2. `O=C(Oc1cccc(Cc2n[nH]c(=O)c3ccccc23)c1)c1ccc(F)cc1` [Compound 212] was tested, and the “DEF (Dose Enhancing Factor)” value was 2.3. For `COc1ccc(Cc2n[nH]c(=O)c3ccccc23)cc1` [Compound 138], the “DEF (Dose Enhancing Factor)” value was 1.3. `O=c1[nH]nc(Cc2cccc(O)c2)c2ccccc12` [Compound 165] was tested, and the “DEF (Dose Enhancing Factor)” value was 1.3. For `O=c1[nH]nc(Cc2ccc(F)cc2)c2ccccc12` [Compound 132], the “DEF (Dose Enhancing Factor)” value was 2.3. In the case of `O=c1[nH]nc(Cc2ccc(N3CCCC3)c([N+](=O)[O-])c2)c2ccccc12` [Compound 204], the “DEF (Dose Enhancing Factor)” value is reported as 1.6. `O=c1[nH]nc(Cc2ccccc2)c2ccccc12` [Compound 145] was tested, and the “DEF (Dose Enhancing Factor)” value was 1.8. For `CC(=O)Oc1ccc(Cc2n[nH]c(=O)c3ccccc23)cc1` [Compound 213], the “DEF (Dose Enhancing Factor)” value was 1.3. `O=c1[nH]nc(Cc2cccc3ccccc23)c2ccccc12` [Compound 131] was tested, and the “DEF (Dose Enhancing Factor)” value was 1.3. With `O=c1[nH]nc(Cc2ccc(O)cc2)c2ccccc12` [Compound 164] the “DEF (Dose Enhancing Factor)” value was 1.3. `O=c1[nH]nc(Cc2ccccc2F)c2ccccc12` [Compound 248] was tested, and the “DEF (Dose Enhancing Factor)” value was 1.2. For `O=c1[nH]nc(Cc2ccc(Cl)cc2)c2ccccc12` [Compound 126], the “DEF (Dose Enhancing Factor)” value was 1.9. For `O=c1[nH]nc(Cc2ccc(I)cc2)c2ccccc12` [Compound 151], the “DEF (Dose Enhancing Factor)” value was 1.9. For `CC(=O)Oc1cccc(Cc2n[nH]c(=O)c3ccccc23)c1` [Compound 179], the “DEF (Dose Enhancing Factor)” value was 1.4. `O=c1[nH]nc(Cc2ccccc2F)c2ccccc12` [Compound 141] was tested, and the “DEF (Dose Enhancing Factor)” value was 1.6. For `O=C(Nc1cccc(Cc2n[nH]c(=O)c3ccccc23)c1)c1cccs1` [Compound 169], the “DEF (Dose Enhancing Factor)” value was 1.5. `O=C(Nc1cccc(Cc2n[nH]c(=O)c3ccccc23)c1)c1ccc(F)cc1` [Compound 170] was tested, and the “DEF (Dose Enhancing Factor)” value was 2.6. In the case of `O=C(Nc1cccc(Cc2n[nH]c(=O)c3ccccc23)c1)c1ccccc1` [Compound 171], the “DEF (Dose Enhancing Factor)” value is reported as 1.8. `COC(=O)CSCc1n[nH]c(=O)c2ccccc12` [Compound 93] was tested, and the “DEF (Dose Enhancing Factor)” value was 1.3. In the case of `O=c1[nH]nc(Cc2cccc(F)c2)c2ccccc12` [Compound 192], the “DEF (Dose Enhancing Factor)” value is reported as 1.4. In the case of `CC(=O)Nc1cccc(Cc2n[nH]c(=O)c3ccccc23)c1` [Compound 172], the “DEF (Dose Enhancing Factor)” value is reported as 1.4. For `Nc1cc(Cc2n[nH]c(=O)c3ccccc23)ccc1N1CCSCC1` [Compound 198], the “DEF (Dose Enhancing Factor)” value was 2.3. In the case of `O=c1[nH]nc(Cc2cccc(Cl)c2)c2ccccc12` [Compound 186], the “DEF (Dose Enhancing Factor)” value is reported as 1.6. With `O=C(O)COCC(=O)Nc1cc(Cc2n[nH]c(=O)c3ccccc23)ccc1N1CCOCC1` [Compound 206] the “DEF (Dose Enhancing Factor)” value was 1.2. `O=c1[nH]nc(Cc2cccnc2)c2ccccc12` [Compound 178] was tested, and the “DEF (Dose Enhancing Factor)” value was 1.9. `Cc1ccccc1Cc1n[nH]c(=O)c2ccccc12` [Compound 163] was tested, and the “DEF (Dose Enhancing Factor)” value was 1.3. With `O=c1[nH]nc(Cc2cccc(OCc3ccccc3)c2)c2ccccc12` [Compound 194] the “DEF (Dose Enhancing Factor)” value was 1.6. For `O=c1[nH]nc(Cc2cccc(Br)c2)c2ccccc12` [Compound 211], the “DEF (Dose Enhancing Factor)” value was 1.4. With `O=c1[nH]nc(Cc2cccc(C(F)(F)F)c2)c2ccccc12` [Compound 191] the “DEF (Dose Enhancing Factor)” value was 1.5. For `O=C(Nc1ccc(Cc2n[nH]c(=O)c3ccccc23)cc1)c1ccc(F)cc1` [Compound 227], the “DEF (Dose Enhancing Factor)” value was 2.6. In the case of `O=c1[nH]nc(CSc2ccc(Cl)cc2)c2ccccc12` [Compound 90], the “DEF (Dose Enhancing Factor)” value is reported as 1.8. With `Cn1ccnc1SCc1n[nH]c(=O)c2ccccc12` [Compound 92] the “DEF (Dose Enhancing Factor)” value was 1.5. For `Cc1ccc(Cc2n[nH]c(=O)c3ccccc23)cc1` [Compound 139], the “DEF (Dose Enhancing Factor)” value was 1.4. With `O=C(Nc1ccccc1)Nc1cccc(Cc2n[nH]c(=O)c3ccccc23)c1` [Compound 215] the “DEF (Dose Enhancing Factor)” value was 1.4. With `O=c1[nH]nc(Cc2ccc(Br)cc2)c2ccccc12` [Compound 129] the “DEF (Dose Enhancing Factor)” value was 1.3. In the case of `O=C(Nc1ccc(F)cc1)Nc1cccc(Cc2n[nH]c(=O)c3ccccc23)c1` [Compound 216], the “DEF (Dose Enhancing Factor)” value is reported as 1.3. For `CC(=O)Nc1ccc(Cc2n[nH]c(=O)c3ccccc23)cc1` [Compound 166], the “DEF (Dose Enhancing Factor)” value was 1.4. In the case of `O=c1[nH]nc(CSc2ccccn2)c2ccccc12` [Compound 91], the “DEF (Dose Enhancing Factor)” value is reported as 1.4.
